Patent US12077605B2, “Cysteine protease inhibitors and methods of use thereof” (ANIXA BIOSCIENCES, INC., priority 2022, dated 2024)
pIC50: −log10 of the molar value.

Target: SARS-CoV-2 main protease M^pro (Severe acute respiratory syndrome coronavirus 2 (2019-nCoV) (SARS-CoV-2), UniProt P0DTD1)
Assay: Mpro enzyme activity assay (biochemical FRET-based)
Conditions: recombinant Mpro (Ser1-Gln306); EDANS/Dabcyl FRET substrate peptide 2 μM; 30 min pre-incubation; pH 7.3; read-out: Mpro inhibition IC50

CNC(=O)C(=O)[C@H](CN1CCNC1=O)NC(=O)[C@H](CC(C)C)NC(=O)c1cc2c(OC)cccc2[nH]1 [compound 2, 4-methoxy-N-((S)-4-methyl-1-(((S)-4-(methylamino)-3,4-dioxo-1-(2-oxoimidazolidin-1-yl)butan-2-yl)amino)-1-oxopentan-2-yl)-1H-indole-2-carboxamide]
pIC50: 6.94
